Experiment: Inhibitory activity against clostridium histolyticum collagenase

| Compound | Ki |
| --- | --- |
| CC(C(=O)O)N(Cc1ccccc1[N+](=O)[O-])C(=O)NS(=O)(=O)c1ccc(F)cc1 (stereo not given) [2-[({[(4-fluorophenyl)sulfonyl]amino}carbonyl)(2-nitrobenzyl)amino]propanoic acid] | 3000 nM |
| Cc1ccc(S(=O)(=O)NC(=O)N(Cc2ccccc2[N+](=O)[O-])C(C)C(=O)O)cc1 (stereo not given) [2-[({[(4-methylphenyl)sulfonyl]amino}carbonyl)(2-nitrobenzyl)amino]propanoic acid] | 3100 nM |
| CC(C(=O)NO)N(Cc1ccccc1[N+](=O)[O-])S(=O)(=O)c1ccccc1 (stereo not given) [2-[Benzenesulfonyl-(2-nitro-benzyl)-amino]-N-hydroxy-propionamide] | 59 nM |
| CC(C(=O)O)N(Cc1ccccc1[N+](=O)[O-])S(=O)(=O)c1ccccc1 (stereo not given) [2-[Benzenesulfonyl-(2-nitro-benzyl)-amino]-propionic acid] | 27000 nM |
| CC(C(=O)O)N(Cc1ccccc1[N+](=O)[O-])S(C)(=O)=O (stereo not given) [2-[Methanesulfonyl-(2-nitro-benzyl)-amino]-propionic acid] | 22000 nM |
| CC(C(=O)NO)N(Cc1ccccc1[N+](=O)[O-])S(=O)(=O)N(C)C (stereo not given) [2-[[(dimethylamino)sulfonyl](2-nitrobenzyl)amino]-N-hydroxypropanamide] | 79 nM |
| CC(C(=O)O)N(Cc1ccccc1[N+](=O)[O-])S(=O)(=O)N(C)C (stereo not given) [2-[[(dimethylamino)sulfonyl](2-nitrobenzyl)amino]propanoic acid] | 43000 nM |
| CC(C(=O)O)N(Cc1ccccc1[N+](=O)[O-])S(=O)(=O)c1cccc(C(=O)O)c1 (stereo not given) [3-[(1-Carboxy-ethyl)-(2-nitro-benzyl)-sulfamoyl]-benzoic acid] | 2100 nM |
| CC(C(=O)NO)N(Cc1ccccc1[N+](=O)[O-])S(=O)(=O)c1cccc(C(=O)O)c1 (stereo not given) [3-[(1-Hydroxycarbamoyl-ethyl)-(2-nitro-benzyl)-sulfamoyl]-benzoic acid] | 8 nM |
| CC(C(=O)O)N(Cc1ccccc1[N+](=O)[O-])S(=O)(=O)c1ccc(C(=O)O)cc1 (stereo not given) [4-[(1-Carboxy-ethyl)-(2-nitro-benzyl)-sulfamoyl]-benzoic acid] | 1900 nM |
| CC(C(=O)NO)N(Cc1ccccc1[N+](=O)[O-])S(=O)(=O)c1ccc(C(=O)O)cc1 (stereo not given) [4-[(1-Hydroxycarbamoyl-ethyl)-(2-nitro-benzyl)-sulfamoyl]-benzoic acid] | 7 nM |
| CC(C(=O)NO)N(Cc1ccccc1[N+](=O)[O-])C(=O)Nc1cccc2ccccc12 (stereo not given) [N-Hydroxy-2-[3-naphthalen-1-yl-1-(2-nitro-benzyl)-ureido]-propionamide] | 10 nM |
| CC(C(=O)NO)N(Cc1ccccc1[N+](=O)[O-])S(=O)(=O)c1ccccc1[N+](=O)[O-] (stereo not given) [N-Hydroxy-2-[(2-nitro-benzenesulfonyl)-(2-nitro-benzyl)-amino]-propionamide] | 11 nM |
| Cc1cc(C)c(S(=O)(=O)N(Cc2ccccc2[N+](=O)[O-])C(C)C(=O)NO)c(C)c1 (stereo not given) [N-Hydroxy-2-[(2-nitro-benzyl)-(2,4,6-trimethyl-benzenesulfonyl)-amino]-propionamide] | 21 nM |
| CC(C(=O)NO)N(Cc1ccccc1[N+](=O)[O-])Sc1ccccc1[N+](=O)[O-] (stereo not given) [N-Hydroxy-2-[(2-nitro-benzyl)-(2-nitro-phenylsulfanyl)-amino]-propionamide] | 12 nM |
| CC(C(=O)NO)N(Cc1ccccc1[N+](=O)[O-])S(=O)(=O)c1cccc(C(F)(F)F)c1 (stereo not given) [N-Hydroxy-2-[(2-nitro-benzyl)-(3-trifluoromethyl-benzenesulfonyl)-amino]-propionamide] | 5 nM |
| CC(C(=O)NO)N(Cc1ccccc1[N+](=O)[O-])Sc1ccc([N+](=O)[O-])cc1 (stereo not given) [N-Hydroxy-2-[(2-nitro-benzyl)-(4-nitro-phenylsulfanyl)-amino]-propionamide] | 13 nM |
| CC(C(=O)NO)N(Cc1ccccc1[N+](=O)[O-])S(=O)(=O)C(F)(F)C(F)(F)C(F)(F)C(F)(F)F (stereo not given) [N-Hydroxy-2-[(2-nitro-benzyl)-(nonafluorobutane-1-sulfonyl)-amino]-propionamide] | 10 nM |

| Compound | Ki |
| --- | --- |
| CC(C(=O)NO)N(Cc1ccccc1[N+](=O)[O-])S(=O)(=O)c1cccc2cccnc12 (stereo not given) [N-Hydroxy-2-[(2-nitro-benzyl)-(quinoline-8-sulfonyl)-amino]-propionamide] | 9 nM |
| CC(C(=O)NO)N(Cc1ccccc1[N+](=O)[O-])S(=O)(=O)c1cccs1 (stereo not given) [N-Hydroxy-2-[(2-nitro-benzyl)-(thiophene-2-sulfonyl)-amino]-propionamide] | 10 nM |
| Cc1ccc(S(=O)(=O)N(Cc2ccccc2[N+](=O)[O-])C(C)C(=O)NO)cc1 (stereo not given) [N-Hydroxy-2-[(2-nitro-benzyl)-(toluene-4-sulfonyl)-amino]-propionamide] | 41 nM |
| CC(C(=O)NO)N(Cc1ccccc1[N+](=O)[O-])S(=O)(=O)Cc1ccccc1 (stereo not given) [N-Hydroxy-2-[(2-nitro-benzyl)-phenylmethanesulfonyl-amino]-propionamide] | 55 nM |
| CC(C(=O)NO)N(Cc1ccccc1[N+](=O)[O-])S(=O)(=O)C(Cl)(Cl)Cl (stereo not given) [N-Hydroxy-2-[(2-nitro-benzyl)-trichloromethanesulfonyl-amino]-propionamide] | 64 nM |
| CC(C(=O)NO)N(Cc1ccccc1[N+](=O)[O-])S(=O)(=O)C(F)(F)F (stereo not given) [N-Hydroxy-2-[(2-nitro-benzyl)-trifluoromethanesulfonyl-amino]-propionamide] | 70 nM |
| CC(C(=O)NO)N(Cc1ccccc1[N+](=O)[O-])S(=O)(=O)c1cccc([N+](=O)[O-])c1 (stereo not given) [N-Hydroxy-2-[(3-nitro-benzenesulfonyl)-(2-nitro-benzyl)-amino]-propionamide] | 10 nM |
| CC(C(=O)NO)N(Cc1ccccc1[N+](=O)[O-])S(=O)(=O)c1ccc(I)cc1 (stereo not given) [N-Hydroxy-2-[(4-iodo-benzenesulfonyl)-(2-nitro-benzyl)-amino]-propionamide] | 34 nM |
| CC(C(=O)NO)N(Cc1ccccc1[N+](=O)[O-])S(=O)(=O)c1ccc([N+](=O)[O-])cc1 (stereo not given) [N-Hydroxy-2-[(4-nitro-benzenesulfonyl)-(2-nitro-benzyl)-amino]-propionamide] | 13 nM |
| CC(C(=O)NO)N(Cc1ccccc1[N+](=O)[O-])S(=O)(=O)c1cccc2ccccc12 (stereo not given) [N-Hydroxy-2-[(naphthalene-1-sulfonyl)-(2-nitro-benzyl)-amino]-propionamide] | 6 nM |
| CC(C(=O)NO)N(Cc1ccccc1[N+](=O)[O-])S(=O)(=O)c1ccc2ccccc2c1 (stereo not given) [N-Hydroxy-2-[(naphthalene-2-sulfonyl)-(2-nitro-benzyl)-amino]-propionamide] | 8 nM |
| CC(C(=O)NO)N(Cc1ccccc1[N+](=O)[O-])S(C)(=O)=O (stereo not given) [N-Hydroxy-2-[methanesulfonyl-(2-nitro-benzyl)-amino]-propionamide] | 86 nM |
| CC(C(=O)NO)N(Cc1ccccc1[N+](=O)[O-])C(=O)NS(=O)(=O)c1ccccc1 (stereo not given) [N-hydroxy-2-((2-nitrobenzyl){[(phenylsulfonyl)amino]carbonyl}amino)propanamide] | 12 nM |
| Cc1ccccc1S(=O)(=O)NC(=O)N(Cc1ccccc1[N+](=O)[O-])C(C)C(=O)NO (stereo not given) [N-hydroxy-2-[({[(2-methylphenyl)sulfonyl]amino}carbonyl)(2-nitrobenzyl)amino]propanamide] | 9 nM |
| CC(C(=O)NO)N(Cc1ccccc1[N+](=O)[O-])S(=O)(=O)c1cccc(NC(=O)OC(C)(C)C)c1 (stereo not given) [{3-[(1-Hydroxycarbamoyl-ethyl)-(2-nitro-benzyl)-sulfamoyl]-phenyl}-carbamic acid tert-butyl ester] | 8 nM |
| CC(C(=O)NO)N(Cc1ccccc1[N+](=O)[O-])S(=O)(=O)c1ccc(NC(=O)OC(C)(C)C)cc1 (stereo not given) [{4-[(1-Hydroxycarbamoyl-ethyl)-(2-nitro-benzyl)-sulfamoyl]-phenyl}-carbamic acid tert-butyl ester] | 9 nM |
| COc1ccc(S(=O)(=O)N(Cc2ccccc2[N+](=O)[O-])C(C)C(=O)NO)cc1NC(=O)OC(C)(C)C (stereo not given) [{5-[(1-Hydroxycarbamoyl-ethyl)-(2-nitro-benzyl)-sulfamoyl]-2-methoxy-phenyl}-carbamic acid tert-butyl ester] | 9 nM |
